How the values were obtained:
in vitro = settings: African green monkey
rVSV-EBOV GP = experiment: microbe, parasite or virus in culture; type: cell-based, Zaire Ebolavirus; settings: Zaire ebolavirus, read-out: rVSV-EBOV IC50
[1] = tested on: authentic EBOV (EBOV-Zaire 1995); experiment: microbe, parasite or virus in culture; type: cell-based, Ebola virus; settings: Zaire ebolavirus, Vero, 48 h, read-out: infectious EBOV-Z IC50

CN1CCN(c2ccc(NS(C)(=O)=O)c(NC(c3ccccc3)c3ccccc3)c2)CC1 [MBX 3536A, 2-(benzhydrylamino)-4-(4-methylpiperazin-1-yl)-1-(methylsulfonamido)benzene]
CC50 (in vitro): 26 µM
IC50 (rVSV-EBOV GP): 2.9 µM
IC50 [1]: 3.1 µM

CN(C)CCN(C)c1ccc([N+](=O)[O-])c(NC(c2ccccc2)c2ccccc2)c1 [MBX 3729, 2-(benzhydrylamino)-4-{[2-(dimethylamino)ethyl](methyl)amino}-1-nitrobenzene]
CC50 (in vitro): 10 µM
IC50 (rVSV-EBOV GP): < 0.1 µM
IC50 [1]: 1.3 µM

CCOC(=O)CC(Nc1cc(N2CCN(C)CC2)ccc1[N+](=O)[O-])c1ccccc1 (stereo not drawn) [MBX 4329, ethyl 3-((5-(4-methylpiperazin-1-yl)-2-nitrophenyl)amino)-3-phenylpropanoate]
CC50 (in vitro): 45 µM
IC50 (rVSV-EBOV GP): 10.4 µM

CN1CCN(c2ccc([N+](=O)[O-])c(NC(c3ccccc3)c3ccncc3)c2)CC1 (stereo not drawn) [MBX 3670, 2-[(pyridin-4-yl)(phenyl)methylamino]-4-(4-methylpiperazin-1-yl)nitrobenzene]
CC50 (in vitro): 45 µM
IC50 (rVSV-EBOV GP): 4.5 µM

O=[N+]([O-])c1ccc(N2CCN(Cc3ccncc3)CC2)cc1NC(c1ccccc1)c1ccccc1 [MBX 3562, 1-(benzhydrylamino)-5-[4-(pyridin-4-ylmethyl)piperazin-1-yl]-2-nitrobenzene]
CC50 (in vitro): > 200 µM
IC50 (rVSV-EBOV GP): 5.6 µM
IC50 [1]: 3.1 µM

O=[N+]([O-])c1ccc(N2CCN(CCc3ccccc3)CC2)cc1NC(c1ccccc1)c1ccccc1 [MBX 3623, 2-benzhydrylamino-4-(4-phenethylpiperazin-1-yl)nitrobenzene]
CC50 (in vitro): > 100 µM
IC50 (rVSV-EBOV GP): > 25 µM

Cc1ccccc1C(Nc1cc(N2CCN(C)CC2)ccc1[N+](=O)[O-])c1ccccc1 (stereo not drawn) [MBX 3633, 2-[phenyl(o-tolyl)methylamino]-4-(4-methylpiperazin-1-yl)nitrobenzene]
CC50 (in vitro): 15 µM
IC50 (rVSV-EBOV GP): 1.5 µM
IC50 [1]: 1.3 µM

CN1CCC(N(C)c2ccc([N+](=O)[O-])c(NC(c3ccccc3)c3ccccc3)c2)CC1 [MBX 3742, 2-(benzhydrylamino)-4-[methyl(1-methylpiperidin-4-yl)amino]-1-nitrobenzene]
CC50 (in vitro): 3.3 µM
IC50 (rVSV-EBOV GP): 1.5 µM

CCCN1CCN(c2ccc([N+](=O)[O-])c(NC(c3ccccc3)c3ccccc3)c2)CC1 [MBX 3566, 1-(benzhydrylamino)-5-(4-propylpiperazin-1-yl)-2-nitrobenzene]
CC50 (in vitro): > 200 µM
IC50 (rVSV-EBOV GP): 2.4 µM
IC50 [1]: 1.6 µM

O=[N+]([O-])c1ccc(N2CCSCC2)cc1NC(c1ccccc1)c1ccccc1 [MBX 3699, 2-benzhydrylamino-4-thiomorpholino-1-nitrobenzene]
CC50 (in vitro): > 100 µM
IC50 (rVSV-EBOV GP): > 25 µM

CN1CCN(c2cc(C#N)c([N+](=O)[O-])c(NC(c3ccccc3)c3ccccc3)c2)CC1 [MBX 3743, 2-(benzhydrylamino)-4-(4-methylpiperazin-1-yl)-6-cyano-1-nitrobenzene]
CC50 (in vitro): > 100 µM
IC50 (rVSV-EBOV GP): 2 µM
IC50 [1]: 2 µM

COCCN1CCN(c2ccc([N+](=O)[O-])c(NC(c3ccccc3)c3ccccc3)c2)CC1 [MBX 3591, 1-(benzhydrylamino)-5-[4-(2-methoxyethyl)piperazin-1-yl]-2-nitrobenzene]
CC50 (in vitro): > 100 µM
IC50 (rVSV-EBOV GP): 1.6 µM
IC50 [1]: 1.4 µM

CN1CCCN(c2ccc([N+](=O)[O-])c(NC(c3ccccc3)c3ccccc3)c2)CC1 [MBX 3700, 2-benzhydrylamino-4-(4-methyl-1,4-diazepan-1-yl)-1-nitrobenzene]
CC50 (in vitro): 7.6 µM
IC50 (rVSV-EBOV GP): < 0.1 µM

CN1CCN(c2ccc([N+](=O)[O-])c(NC3(c4ccccc4)CCCC3)c2)CC1 [MBX 4296, 5-(4-methylpiperazin-1-yl)-2-nitro-N-(1-phenylcyclopentyl)aniline]
CC50 (in vitro): > 200 µM
IC50 (rVSV-EBOV GP): 5.89 µM

COc1cccc(C(Nc2cc(N3CCN(C)CC3)ccc2[N+](=O)[O-])c2ccccc2)c1 (stereo not drawn) [MBX 3641, 2-[(3-methoxyphenyl)(phenyl)methylamino]-4-(4-methylpiperazin-1-yl)nitrobenzene]
CC50 (in vitro): 26 µM
IC50 (rVSV-EBOV GP): > 25 µM

O=[N+]([O-])c1ccc(N2CCN(c3ccccc3)CC2)cc1NC(c1ccccc1)c1ccccc1 [MBX 3624, 2-benzhydrylamino-4-(4-phenylpiperazin-1-yl)nitrobenzene]
CC50 (in vitro): > 100 µM
IC50 (rVSV-EBOV GP): > 25 µM

CN(C)C1CCN(c2ccc([N+](=O)[O-])c(NC(c3ccccc3)c3ccccc3)c2)CC1 [MBX 3749, 2-(benzhydrylamino)-4-[4-(dimethylamino)piperidin-1-yl]-1-nitrobenzene]
CC50 (in vitro): 7.7 µM
IC50 (rVSV-EBOV GP): 0.7 µM

c1ccc(C(c2ccccc2)n2cnc3cnc(N4CCNCC4)cc32)cc1 [MBX 4215A, 1-benzhydryl-6-(piperazin-1-yl)-1H-imidazo[4,5-c]pyridine bis(2,2,2-trifluoroacetate)]
CC50 (in vitro): 94 µM
IC50 (rVSV-EBOV GP): 2.8 µM

CN1CCN(c2ccc([N+](=O)[O-])c(NC(c3ccccc3)c3ccc(Cl)cc3)c2)CC1 (stereo not drawn) [MBX 3644, 2-[(4-chlorophenyl)(phenyl)methylamino]-4-(4-methylpiperazin-1-yl)nitrobenzene]
CC50 (in vitro): 18 µM
IC50 (rVSV-EBOV GP): 1.4 µM

CN1CCN(c2ccc3[nH]c(=O)n(C(c4ccccc4)c4ccccc4)c3c2)CC1 [MBX 3526, 1-benzhydryl-6-(4-methylpiperazin-1-yl)-1H-benzo[d]imidazol-2(3H)-one]
CC50 (in vitro): 26 µM
IC50 (rVSV-EBOV GP): 2.9 µM

c1ccc(C(c2ccccc2)n2cnc3ccc(N4CCN5CCCCC5C4)cc32)cc1 (stereo not drawn) [MBX 4211, 2-(1-benzhydryl-1H-benzo[d]imidazol-6-yl)octahydro-1H-pyrido[1,2-a]pyrazine]
CC50 (in vitro): 195 µM
IC50 (rVSV-EBOV GP): 2 µM

CN1CCN(c2ccc([N+](=O)[O-])c(NC3(c4ccccc4)CC3)c2)CC1 [MBX 4295, 5-(4-methylpiperazin-1-yl)-2-nitro-N-(1-phenylcyclopropyl)aniline]
CC50 (in vitro): 58 µM
IC50 (rVSV-EBOV GP): 16.2 µM

O=[N+]([O-])c1ccc(N2CCC(N3CCCCC3)CC2)cc1NC(c1ccccc1)c1ccccc1 [MBX 3747, 2-(benzhydrylamino)-4-[(1,4′-bipiperidin)-1′-yl]-1-nitrobenzene]
CC50 (in vitro): 7.5 µM
IC50 (rVSV-EBOV GP): 0.58 µM

CN1CCN(c2ccc([N+](=O)[O-])c(NC(=O)c3ccccc3)c2)CC1 [MBX 4328, N-[5-(4-methylpiperazin-1-yl)-2-nitrophenyl]benzamide]
CC50 (in vitro): 60 µM
IC50 (rVSV-EBOV GP): 11.5 µM

CN1CCN(c2ccc3ncn(C(C)(C)c4ccccc4)c3c2)CC1 [MBX 4213, 6-(4-methylpiperazin-1-yl)-1-(2-phenylpropan-2-yl)-1H-benzo[d]imidazole]
CC50 (in vitro): > 200 µM
IC50 (rVSV-EBOV GP): 200 µM

CN1CCN(c2ccc([N+](=O)[O-])c(NC(c3ccccc3)c3ccccc3)c2)CC1=O [MBX 3695, 2-benzhydrylamino-4-(4-methyl-3-oxopiperazin-1-yl)nitrobenzene]
CC50 (in vitro): > 100 µM
IC50 (rVSV-EBOV GP): 16 µM

c1ccc(C(c2ccccc2)n2cnc3ccc(N4CCNCC4)nc32)cc1 [MBX 4214, 3-benzhydryl-5-(piperazin-1-yl)-3H-imidazo[4,5-b]pyridine]
CC50 (in vitro): 105 µM
IC50 (rVSV-EBOV GP): 3 µM

CCOC(=O)CN1CCN(c2ccc([N+](=O)[O-])c(NC(c3ccccc3)c3ccccc3)c2)CC1 [MBX 3947, 2-(benzhydrylamino)-4-[4-(2-ethoxy-2-oxoethyl)piperazin-1-yl]-1-nitrobenzene]
CC50 (in vitro): > 100 µM
IC50 (rVSV-EBOV GP): 18 µM

c1ccc(C(c2ccccc2)n2cnc3ccc(-c4ccncc4)cc32)cc1 [MBX 4278, 1-benzhydryl-6-(pyridin-4-yl)-1H-benzo[d]imidazole]
CC50 (in vitro): 4.2 µM
IC50 (rVSV-EBOV GP): 8.98 µM

CCN(CC)c1ccc([N+](=O)[O-])c(NC(c2ccccc2)c2ccccc2)c1 [MBX 3696, 2-benzhydrylamino-4-(diethylamino)nitrobenzene]
CC50 (in vitro): > 100 µM
IC50 (rVSV-EBOV GP): > 25 µM

CN1CCN(c2ccc([N+](=O)[O-])c(NC(c3ccccc3)c3ccccn3)c2)CC1 (stereo not drawn) [MBX 3647, 2-[(pyridin-2-yl)(phenyl)methylamino]-4-(4-methylpiperazin-1-yl)nitrobenzene]
CC50 (in vitro): > 100 µM
IC50 (rVSV-EBOV GP): > 25 µM

O=[N+]([O-])c1ccc(-c2cccnc2)cc1NC(c1ccccc1)c1ccccc1 [MBX 4279, N-benzhydryl-2-nitro-5-(pyridin-3-yl)aniline]
CC50 (in vitro): 49 µM
IC50 (rVSV-EBOV GP): 12.4 µM

Cc1ccc(C(Nc2cc(N3CCN(C)CC3)ccc2[N+](=O)[O-])c2ccccc2)cc1 (stereo not drawn) [MBX 3687, 2-[(phenyl)(p-tolyl)methylamino]-4-(4-methylpiperazin-1-yl)nitrobenzene]
CC50 (in vitro): 16 µM
IC50 (rVSV-EBOV GP): 2.2 µM

O=[N+]([O-])c1ccc(N2CCCCC2)cc1NC(c1ccccc1)c1ccccc1 [MBX 3702, 2-benzhydrylamino-4-(piperidin-1-yl)-1-nitrobenzene]
CC50 (in vitro): > 100 µM
IC50 (rVSV-EBOV GP): > 25 µM

c1ccc(C(c2ccccc2)n2cnc3ccc(-c4cccnc4)cc32)cc1 [MBX 4294, 1-benzhydryl-6-(pyridin-3-yl)-1H-benzo[d]imidazole]
CC50 (in vitro): 59 µM
IC50 (rVSV-EBOV GP): 15.6 µM

O=[N+]([O-])c1ccc(N2CCOCC2)cc1NC(c1ccccc1)c1ccccc1 [PPZ-10]
CC50 (in vitro): > 100 µM
IC50 (rVSV-EBOV GP): 5.5 µM

CN1CCN(c2ccc([N+](=O)[O-])c(NC(c3ccccc3)c3cccnc3)c2)CC1 (stereo not drawn) [MBX 3648, 2-[(pyridin-3-yl)(phenyl)methylamino]-4-(4-methylpiperazin-1-yl)nitrobenzene]
CC50 (in vitro): 17 µM
IC50 (rVSV-EBOV GP): > 25 µM

O=[N+]([O-])c1ccc(-c2ccncc2)cc1NC(c1ccccc1)c1ccccc1 [MBX 4277, N-benzhydryl-2-nitro-5-(pyridin-4-yl)aniline]
CC50 (in vitro): 40 µM
IC50 (rVSV-EBOV GP): 14.6 µM

COc1ccc(C(Nc2cc(N3CCN(C)CC3)ccc2[N+](=O)[O-])c2ccccc2)cc1 (stereo not drawn) [MBX 3642, 2-[(4-methoxyphenyl)(phenyl)methylamino]-4-(4-methylpiperazin-1-yl)nitrobenzene]
CC50 (in vitro): 33 µM
IC50 (rVSV-EBOV GP): > 25 µM

COc1ccccc1C(Nc1cc(N2CCN(C)CC2)ccc1[N+](=O)[O-])c1ccccc1 (stereo not drawn) [MBX 3635, 2-[phenyl(2-methoxyphenyl)methylamino]-4-(4-methylpiperazin-1-yl)nitrobenzene]
CC50 (in vitro): 14 µM
IC50 (rVSV-EBOV GP): 2.5 µM

Reference: patent US11459308B2 (priority 2016, dated 2022)
